Experimental data: article PMC11557314 (Frontiers in Pharmacology, 2024)
Where no end group is shown, it is not given here.

Target: hDOPr (Homo sapiens, UniProt P41143)
Test: [35S]GTPγS functional assay on hDOPr-CHO cell membranes
Assay type: biochemical
Conditions: Table 3, mean ± SEM; for hDOPr % stim, stimulation of [35S]GTPγS binding: normalized to DynA; for EC50: read-out: hDOPr EC50, stimulation of [35S]GTPγS binding
Protocol: CHO cells stably transfected with human KOPr, MOPr, and DOPr (hKOPr-CHO, hMOPr-CHO, and hDOPr-CHO, respectively) were provided by Prof. Liu-Chen (Temple University, Philadelphia, United States). The cells were grown in Gibco™ Dulbecco’s minimal essential medium (DMEM) for hKOPr-CHO or Gibco™ DMEM/F-12 for hMOPr and hDOPr. Both media were supplemented with 10% FBS (Gibco™), GlutaMAX (100 μg/mL; Gibco™), penicillin/streptomycin (100 μg/mL; Gibco™), and geneticin (G418, 400 μg/mL; Gibco™). HEK 293 cells were grown in high-glucose DMEM supplemented with 10% FBS (Gibco™), GlutaMAX (100 μg/mL; Gibco™), and penicillin/streptomycin (100 μg/mL; Gibco™). Cell cultures were maintained in a Heracell™ 150i CO2 incubator at 37°C and 5.0% CO2.
Functional assays were conducted on hKOPr-CHO, hMOPr-CHO, and hDOPr-CHO cell membranes (see above). The membranes were prepared in a buffer containing 20 mM HEPES, 10 μM GDP, cell membrane (10–30 μg), and 0.05 nM [^35S]GTPγS. The buffer containing the cell membranes was incubated with an increasing concentration of the test peptide diluted in 1 × HEPES, pH 7.4, in a total volume of 1 mL, for 60 min at 25°C. The peptide solutions were replaced by diluents for untreated controls. Non-specific binding was determined using unlabeled 10 μM GTPγS. Samples were rapidly washed three times with Tris-HCl and filtered through glass fiber filters (GF/B Whatman). The bound radioactivity was measured by liquid scintillation (Carl Roth GmbH, Karlsruhe, Germany) counting on a Packard 1600 TR Tri-Carb Beta counter (Canberra, Belgium).

hDOPr, sequence (P41143 whole entry): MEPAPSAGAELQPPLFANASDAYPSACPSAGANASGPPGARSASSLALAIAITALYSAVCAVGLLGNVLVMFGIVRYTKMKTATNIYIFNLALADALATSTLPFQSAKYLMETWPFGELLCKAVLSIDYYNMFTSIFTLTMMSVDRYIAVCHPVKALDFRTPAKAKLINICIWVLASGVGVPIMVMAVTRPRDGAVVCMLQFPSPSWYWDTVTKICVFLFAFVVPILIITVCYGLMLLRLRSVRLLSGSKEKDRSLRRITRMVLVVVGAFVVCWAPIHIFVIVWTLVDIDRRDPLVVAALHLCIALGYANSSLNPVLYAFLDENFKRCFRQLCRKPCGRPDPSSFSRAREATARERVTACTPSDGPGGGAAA

Row | Sequence | hDOPr % stim, stimulation of [35S]GTPγS binding | EC50
1 | YGAFLRRAFKVVT [DynB_G3A/Q8A] | 86.4 ± 10.3% | 1.23 µM
2 | YGGFSRRQFKVVT [DynB_L5S] | 86.7 ± 9.2% | 0.31 ± 0.0504 µM
